Test results as given in article PMC5625157, “Lack of clinically important PK interaction between coformulated ledipasvir/sofosbuvir and rilpivirine/emtricitabine/tenofovir alafenamide” (Pharmacology Research & Perspectives, 2017).
Like-named read-outs stand apart in the source and are kept apart here.

Legend:
[1] = Phase 1 crossover drug-drug interaction study, plasma pharmacokinetics by HPLC-MS/MS, non-compartmental analysis; conditions: for effect of coadministered LDV/SOF on exposure (C max, AUC tau): LDV/SOF + R/F/TAF vs R/F/TAF; for effect of coadministered LDV/SOF on exposure (C max, AUC tau) / effect of coadministered R/F/TAF on exposure (C max, AUC tau): result in words; for C tau / AUC / Cmax / AUC(0-t): mean (%CV); for AUC / Cmax / Tmax / half-life / AUC(0-t): human; for AUC: AUCtau, healthy subjects, fed, multiple dose; for Cmax: C max; for Tmax: T max; for effect of coadministered R/F/TAF on exposure (C max, AUC tau): LDV/SOF + R/F/TAF vs LDV/SOF; for AUC(0-t): AUClast;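 for all read-outs here: blood sampled at steady state on final dosing day, predose through 24 h after dose, study drug given shortly after standardized breakfast, with isotopically labeled internal standards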
[2] = in vivo; for C max / T max / t 1/2: human
clinical = conditions: human, in vivo; for AUC: AUCtau, healthy subjects, fed, multiple dose; for AUC / Cmax: plasma, mean (%CV); for Cmax: C max; for half-life: median (first quartile, third quartile)
[3] = cited from earlier work
[4] = design: method as in German et al. 2014; conditions: ref German et al. 2014, cited from earlier work
[5] = Reference: R/F/TAF (N = 42), plasma
[6] = Test: LDV/SOF + R/F/TAF (N = 42), plasma
[7] = plasma, oral, Reference: R/F/TAF (N = 42), plasma
[8] = plasma, oral, Test: LDV/SOF + R/F/TAF (N = 42), plasma
[9] = plasma, oral, t 1/2, Reference: R/F/TAF (N = 42), median (first quartile, third quartile)
[10] = plasma, oral, t 1/2, Test: LDV/SOF + R/F/TAF (N = 42), median (first quartile, third quartile)
[11] = test LDV/SOF + R/F/TAF vs reference R/F/TAF
[12] = Test: LDV/SOF + R/F/TAF (N = 42)
[13] = t 1/2, Reference: LDV/SOF (N = 41)
[14] = t 1/2, Test: LDV/SOF + R/F/TAF (N = 42)
[15] = Reference: LDV/SOF (N = 41), median (first quartile, third quartile)
[16] = test LDV/SOF + R/F/TAF vs reference LDV/SOF
[17] = in vivo, Reference: R/F/TAF (N = 42), plasma
[18] = in vivo, Test: LDV/SOF + R/F/TAF (N = 42), plasma

With `Nc1nc(=O)n([C@@H]2CS[C@H](CO)O2)cc1F` [FTC, emtricitabine] the “effect of coadministered LDV/SOF on exposure (C max, AUC tau)” value (“effect of coadministered LDV/SOF” for short) [1] was “no effect”, the C tau [1, 5] was 88 (28) ng/mL and the C tau [1, 6] was 89 (25) ng/mL. For the same compound, the AUC [1, 7] was 10.8 µg·h/mL, the AUC [1, 8] was 10.8 µg·h/mL and the Cmax [1, 7] was 1.71 µg/mL. The Cmax [1, 8] was 1.65 µg/mL, the Tmax ([1]; plasma, oral, Reference: R/F/TAF (N = 42), median (first quartile, third quartile)) was 2.5 h and the Tmax ([1]; plasma, oral, Test: LDV/SOF + R/F/TAF (N = 42), median (first quartile, third quartile)) was 3 h. The half-life [1, 9] was 6.5 h, the half-life [1, 10] was 5.1 h and the “GLSM ratio (test/reference) of AUCtau” value [1, 11] was 100%. The “GLSM ratio (test/reference) of C max” value [1, 11] was 97% and the “GLSM ratio (test/reference) of C tau” value [1, 11] was 102%.

In the case of `C[C@@]1(F)[C@H](O)[C@@H](CO)O[C@H]1n1ccc(=O)[nH]c1=O` [GS‐331007], the C max [2] is reported as 884 (14) ng/mL, the T max [2] is reported as 4.5 (4.0, 4.5) h and the “t 1/2” value [2] is reported as 16.7 (13.8, 21.9) h. For the same compound, the C tau [2] was 340 (16) ng/mL.

In the case of `C[C@H](NP(=O)(O)OC[C@H]1O[C@@H](n2ccc(=O)[nH]c2=O)[C@](C)(F)[C@@H]1O)C(=O)O` [GS‐566500], the C max [2] is reported as 510 (20) ng/mL, the T max [2] is reported as 3.0 (2.0, 4.0) h and the “t 1/2” value [2] is reported as 2.2 (2.0, 2.5) h.

For `COC(=O)N[C@H](C(=O)N1CC2(CC2)C[C@H]1c1ncc(-c2ccc3c(c2)C(F)(F)c2cc(-c4ccc5nc([C@@H]6[C@H]7CC[C@H](C7)N6C(=O)[C@@H](NC(=O)OC)C(C)C)[nH]c5c4)ccc2-3)[nH]1)C(C)C` [LDV, ledipasvir], the AUC (clinical; Reference: LDV/SOF (N = 41)) was 11.6 µg·h/mL, the AUC (clinical; [12]) was 11.9 µg·h/mL and the Cmax (clinical; Reference: LDV/SOF (N = 41)) was 0.647 µg/mL. It also gave a Cmax (clinical; [12]) of 0.658 µg/mL, a half-life (clinical; [13]) of 32.6 h and a half-life (clinical; [14]) of 31.3 h. For the same compound, the “effect of coadministered R/F/TAF on exposure (C max, AUC tau)” value (shortened to “effect of coadministered R/F/TAF”) [1] was “did not noticeably increase”, the “effect of coadministered R/F/TAF” value ([1]; listed as ledipasvir) was “no relevant effect” and the T max [1, 15] was 4.5 (4.5, 5.0) h. For the same compound, the C tau ([1]; Reference: LDV/SOF (N = 41), plasma) was 420 (46) ng/mL, the C tau [1, 6] was 434 (47) ng/mL and the “GLSM ratio (test/reference) of AUCtau” value [1, 16] was 102%. The “GLSM ratio (test/reference) of C max” value [1, 16] was 101% and the “GLSM ratio (test/reference) of C tau” value [1, 16] was 102%.

With `Cc1cc(/C=C/C#N)cc(C)c1Nc1ccnc(Nc2ccc(C#N)cc2)n1` [RPV, rilpivirine] the Tmax (clinical) was 5 h, the “effect of coadministered LDV/SOF” value [1] was “no effect” and the C tau [1, 5] was 109 (32) ng/mL. The T max ([1]; Test: LDV/SOF + R/F/TAF (N = 42), median (first quartile, third quartile)) was 4.0 (4.0, 5.0) h, the C tau [1, 6] was 100 (26) ng/mL and the AUC [1, 7] was 3.04 µg·h/mL. For the same compound, the AUC [1, 8] was 2.86 µg·h/mL, the Cmax [1, 7] was 0.203 µg/mL and the Cmax [1, 8] was 0.197 µg/mL. The half-life [1, 9] was 32.8 h, the half-life [1, 10] was 30.4 h and the “GLSM ratio (test/reference) of AUCtau” value [1, 11] was 95%. For the same compound, the “GLSM ratio (test/reference) of C max” value [1, 11] was 97% and the “GLSM ratio (test/reference) of C tau” value [1, 11] was 93%.

Compound `CC(C)OC(=O)[C@H](C)N[P@](=O)(OC[C@H]1O[C@@H](n2ccc(=O)[nH]c2=O)[C@](C)(F)[C@@H]1O)Oc1ccccc1` [SOF, sofosbuvir] has an AUC (clinical; Reference: LDV/SOF (N = 41)) of 2.91 µg·h/mL, an AUC (clinical; [12]) of 3.07 µg·h/mL and a Cmax (clinical; Reference: LDV/SOF (N = 41)) of 1.47 µg/mL. For the same compound, the Cmax (clinical; [12]) was 1.39 µg/mL, the half-life (clinical; [13]) was 0.5 h and the half-life (clinical; [14]) was 0.5 h. For the same compound, the “effect of coadministered R/F/TAF” value [1] was “did not noticeably increase”, the “effect of coadministered R/F/TAF” value ([1]; listed as sofosbuvir) was “no relevant effect” and the T max [1, 15] was 2.0 (1.5, 3.0) h. The “GLSM ratio (test/reference) of AUCtau” value [1, 16] was 105% and the “GLSM ratio (test/reference) of C max” value [1, 16] was 96%.

In the case of `CC(C)OC(=O)[C@H](C)N[P@](=O)(CO[C@H](C)Cn1cnc2c(N)ncnc21)Oc1ccccc1` [TAF, tenofovir alafenamide], the “lower plasma tenofovir exposure compared to TDF 300 mg” value ([3]; TAF 25 mg vs TDF 300 mg, reference not given) is listed as ~ 90%, the “less plasma TFV exposures than TDF” value ([3]; TAF vs TDF, ref Sax et al. 2015, Zack et al. 2016, Gilead Sciences Inc, 2017b) is listed as 80–90% and the “effect of coadministered LDV/SOF” value [1] is listed as “no effect”. The “t 1/2” value ([1]; Reference: R/F/TAF (N = 42), median (first quartile, third quartile)) was 0.5 (0.4, 0.6) h, the AUC(0-t) [1, 17] was 0.277 µg·h/mL and the AUC(0-t) [1, 18] was 0.362 µg·h/mL. For the same compound, the Cmax [1, 17] was 0.2 µg/mL, the Cmax [1, 18] was 0.205 µg/mL and the Tmax ([1]; in vivo, Reference: R/F/TAF (N = 42), median (first quartile, third quartile)) was 1.5 h. For the same compound, the Tmax ([1]; in vivo, Test: LDV/SOF + R/F/TAF (N = 42), median (first quartile, third quartile)) was 1.8 h, the “GLSM ratio (test/reference) of AUClast” value [1, 11] was 132% and the “GLSM ratio (test/reference) of C max” value [1, 11] was 103%.

For `C[C@H](Cn1cnc2c(N)ncnc21)OCP(=O)(O)O` [TFV, tenofovir], the “increase in TFV exposure” value ([4]; R/F/TDF coadministered with LDV/SOF compared to R/F/TDF alone) is given as 40%, the TFV exposure ([4]; R/F/TDF coadministered with LDV/SOF) is given as 4,780 ng·h/mL and the C tau [1, 5] is given as 9 (25) ng/mL. For the same compound, the C tau [1, 6] was 17 (22) ng/mL, the AUC [1, 7] was 0.268 µg·h/mL and the AUC [1, 8] was 0.467 µg·h/mL. The Cmax [1, 7] was 0.016 µg/mL, the Cmax [1, 8] was 0.025 µg/mL and the half-life [1, 9] was 32 h. For the same compound, the half-life [1, 10] was 44.5 h, the “GLSM ratio (test/reference) of AUCtau” value [1, 11] was 175% and the “GLSM ratio (test/reference) of C max” value [1, 11] was 162%. For the same compound, the “GLSM ratio (test/reference) of C tau” value [1, 11] was 185%.
